Structures can show the parent of a compound that is named as a salt.
Key:
human EP1 receptor [1] = target: T1, human EP1 receptor (Homo sapiens, UniProt P34995); experiment: Test 3: Measurement of IP1 responses by HTRF, HEK-293 cells stably expressing human EP1 receptors incubated o/n, PGE2 10 nM; assay type: cell-based; set-up: expressed in transfected cells; settings: for inhibition at 10 µM: HEK293, read-out: Results of Test 3 (Functional assay), % inh; for Results of Test 3 (Functional assay), % inh: at 10 μM
T1 sequence (P34995 1-402): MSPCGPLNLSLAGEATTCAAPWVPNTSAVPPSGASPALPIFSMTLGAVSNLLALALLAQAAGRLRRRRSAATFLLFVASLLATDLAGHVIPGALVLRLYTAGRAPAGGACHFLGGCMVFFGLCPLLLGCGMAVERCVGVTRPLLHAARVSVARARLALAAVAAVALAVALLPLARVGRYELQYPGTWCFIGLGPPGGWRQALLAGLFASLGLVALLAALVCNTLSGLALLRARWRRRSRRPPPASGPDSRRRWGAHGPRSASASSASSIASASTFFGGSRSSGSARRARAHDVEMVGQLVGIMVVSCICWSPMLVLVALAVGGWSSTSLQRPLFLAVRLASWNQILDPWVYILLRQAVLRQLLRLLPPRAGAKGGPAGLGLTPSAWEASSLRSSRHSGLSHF
Protocol: Test 3: Measurement of IP1 Responses by Homogeneous Time Resolved Fluorescence
IP1 measurements on HEK-293 cells that stably expressed human EP1 receptors were performed by using a system based on Homogeneous Time Resolved Fluorescense (HTRF) (Gabriel et al., 2003). This technology allows the direct measurement of IP1 in living cells. The principle of this assay is based on competition between IP1 produced by cells and IP1-d2 conjugate for the binding with monoclonal anti-IP1-cryptate conjugate. The HTRF IP1 kit from CisBio was used according to the manufacturer's directions. The experimental procedure was performed as stated below.
40,000 cells per well were added to 96-well culture plates in 40 μl of Optimem and incubated o/n at 37° C. Optimem was replaced by 40 μl of stimulation buffer (supplied by the kit) and compounds were then added in 20 μl of stimulation buffer and incubated at 37° C. for 15 minutes followed by 10 μl of PGE2 to a final concentration of 10 nM. After 90 minutes at 37° C., the reaction was stopped lysing the cells with a mixture of 15 μl of cryptate and 15 μl of IP1-d2 prepared in the lysis buffer supplied by the manufacturer. Plates were incubated for an additional hour at room temperature and read at 665 nm/620 nm using an UltraEvolution Plate reader (Tecan).
Antagonist percentage inhibition was calculated relating compounds activity to the 0% inhibition of the wells incubated with 10 nM PGE2 alone and 100% inhibition of the wells incubated with 10 nM PGE2 plus 10 μM of the reference antagonist.

human EP1 receptor [2] = target: T1, human EP1 receptor; experiment: Test 1: Human EP1 receptor radioligand binding assay ([3H]-PGE2, transfected HEK-293 cell membranes); set-up: expressed in transfected cells; host or cells: HEK-293 cell membranes; settings: for inhibition at 10 µM: read-out: Results of Test 1 (Binding assay), % inh; for Results of Test 1 (Binding assay), % inh: at 10 μM
Protocol: Test 1: Human EP1 Receptor Radioligand Binding Assay
To investigate binding properties of EP1 receptor ligands to human EP1 receptor, transfected HEK-293 cell membranes and [3H]-PGE2 (Perkin Elmer) were used. In 96-well plates the assay was carried out with a total reaction volume of 250 μl, containing 25 μl of membrane suspension (30 μg protein/well), 25 μl of [3H]-PGE2 (10 nM) in either absence or presence of 25 μl of either buffer or PGE2 (10 μM) for total and non-specific binding, respectively. Binding buffer contained 10 mM MES, 1 mM MgCl2 and 1 mM EDTA at pH 6.0. Plates were incubated at 25° C. for 60 minutes. After the incubation period, 200 μl of incubate were transferred to MultiScreen HTS, FB plates (Millipore), filtered and plates were washed 6 times with ice-cold 10 mM MES, 1 mM MgCl2 and 1 mM EDTA at pH 6.0. Filters were dried and counted in a MicroBeta scintillation counter (Perkin-Elmer) using EcoScint liquid scintillation cocktail.
Percentage inhibition was calculated relating compounds activity to the 0% inhibition of the wells incubated with 10 nM [3H]-PGE2 alone (total binding) and 100% inhibition of the wells incubated with 10 nM [3H]-PGE2 plus 10 μM PGE2 (non-specific binding).

inhibition at 10 µM (human EP1 receptor [1]) [%]	inhibition at 10 µM (human EP1 receptor [2]) [%]	Results of Test 3 (Functional assay), % inh (human EP1 receptor [1])	Results of Test 1 (Binding assay), % inh (human EP1 receptor [2])	Structure (SMILES)
> 75	> 75			O=C(O)c1cncc2c1CCN2Cc1cc(Cl)ccc1OCc1ccc(Cl)cc1F [Example 248, sodium 1-{5-chloro-2-[(4-chloro-2-fluorobenzyl)oxy]benzyl}-2,3-dihydro-1H-pyrrolo[2,3-c]pyridine-4-carboxylate]
> 75	> 75			O=C(O)c1cncc2c1CCCN2Cc1cc(F)ccc1OCc1ccc(F)cc1F [Example 243]
> 75	> 75			O=C(O)c1cncc2c1CCCN2Cc1cc(Cl)ccc1OCc1ccc(Cl)cc1F [Example 226, Sodium 1-{5-chloro-2-[(4-chloro-2-fluorobenzyl)oxy]benzyl}-1,2,3,4-tetrahydro-1,7-naphthyridine-5-carboxylate]
> 75	> 75			O=C(O)c1cccc2c1c(CO)cn2Cc1cc(Cl)ccc1OCc1ccc(F)cc1F [Example 142]
> 75	> 75			O=C(O)c1cccc2c1c(CO)nn2Cc1cc(Cl)ccc1OCc1ccc(Cl)cc1F [Example 188, sodium 1-(5-chloro-2-((4-chloro-2-fluorobenzyl)oxy)benzyl)-3-(hydroxymethyl)-1H-indazole-4-carboxylate]
		$ (% inh > 75)	# (% inh > 75)	O=C([O-])c1ccnc2c1CCN2Cc1cc(Cl)ccc1OCc1ccc(F)cc1.[Na+] [Example 220]
> 75	> 75			O=C(O)c1cccc2c1CCCN2Cc1cc(Cl)ccc1OC1CCC1 [Example 178]
> 75	> 75			O=C(O)c1cccc2c1OCCN2Cc1cc(F)ccc1OCc1ccc(F)cc1Cl [Example 121]
> 75	> 75			O=C(O)c1cccc2c1c(CO)cn2Cc1ccccc1OCc1ccc(Cl)cc1F [Example 144]
> 75	> 75			O=C(O)c1cccc2c1cnn2Cc1cc(Cl)ccc1OCc1ccc(Cl)cc1F [Example 124]
45 to 75	> 75			CN(C)S(=O)(=O)NC(=O)c1cccc2c1CCCN2Cc1cc(Cl)ccc1OCc1ccc(Cl)cc1F [Example 237, 1-{5-chloro-2-[(4-chloro-2-fluorobenzyl)oxy]benzyl}-N-[(dimethylamino)sulfonyl]-1,2,3,4-tetrahydroquinoline-5-carboxamide sodium salt]
> 75	> 75			O=C(O)c1cccc2c1OCCN2Cc1cc(Cl)ccc1OC1CCC1 [Example 197]
> 75	> 75			O=C(O)c1cccc2c1c(CO)cn2Cc1cc(F)ccc1OCc1ccc(F)cc1 [Example 149]
> 75	> 75			O=C(O)c1cncc2c1CCCN2Cc1ccccc1OCc1ccc(Cl)cc1F [Example 240]
> 75	> 75			O=C(O)c1cccc2c1c(CO)cn2Cc1cc(F)ccc1OC1CCC1 [Example 148]
> 75	> 75			O=C(O)c1cccc2c1c(CO)cn2Cc1cc(F)ccc1OCc1ccc(Cl)cc1F [Example 146]
> 75	> 75			CC(C)(F)COc1ccc(Cl)cc1CN1CCCc2c(C(=O)O)cncc21 [Example 242]
> 75	> 75			Cc1ccc(OCc2ccc(Cl)cc2F)c(CN2CCOc3c(C(=O)O)cccc32)c1 [Example 194]
> 75	> 75			CC(C)(F)COc1ccc(Cl)cc1CN1CCCc2c(C(=O)O)cccc21 [Example 177]

inhibition at 10 µM (human EP1 receptor [1]) [%]	inhibition at 10 µM (human EP1 receptor [2]) [%]	Results of Test 3 (Functional assay), % inh (human EP1 receptor [1])	Results of Test 1 (Binding assay), % inh (human EP1 receptor [2])	Structure (SMILES)
> 75	> 75			O=C(O)c1ccnc2c1CCN2Cc1cc(Cl)ccc1OCc1ccc(Cl)cc1F [Example 216, sodium 1-{5-chloro-2-[(4-chloro-2-fluorobenzyl)oxy]benzyl}-2,3-dihydro-1H-pyrrolo[2,3-b]pyridine-4-carboxylate]
> 75	> 75			CC(C)COc1ccc(F)cc1CN1CCc2c(C(=O)O)cccc21 [Example 170]
		$ (% inh > 75)	# (% inh > 75)	CC(C)(F)COc1ccc(Cl)cc1CN1CCc2c(C(=O)[O-])ccnc21.[Na+] [Example 221]
> 75	> 75			O=C(O)c1cccc2c1c(CO)cn2Cc1cc(Cl)ccc1OCc1ccc(Cl)cc1F [Example 141, sodium 1-(5-chloro-2-((4-chloro-2-fluorobenzyl)oxy)benzyl)-3-(hydroxymethyl)-1H-indole-4-carboxylate]
> 75	> 75			O=C(O)c1cccc2c1c(CO)cn2Cc1cc(F)ccc1OCc1ccc(F)cc1F [Example 145]
> 75	> 75			CC(C)(C)COc1ccc(Cl)cc1Cn1ncc2c(C(=O)O)cccc21 [Example 138]
> 75	> 75			CC(CF)COc1ccc(Cl)cc1Cn1cc(CO)c2c(C(=O)O)cccc21 (stereo not drawn) [Example 151]
> 75	> 75			CC(C)(F)COc1ccc(Cl)cc1Cn1cc(CO)c2c(C(=O)O)cccc21 [Example 147]
> 75	> 75			CC(C)COc1ccc(F)cc1CN1CCOc2c(C(=O)O)cccc21 [Example 195]
> 75	> 75			C=C(CF)COc1ccc(Cl)cc1CN1CCCc2c(C(=O)O)cccc21 [Example 182]
> 75	> 75			O=C(O)c1ccnc2c1cnn2Cc1cc(Cl)ccc1OCc1ccc(Cl)cc1F [Example 212, sodium 1-{5-chloro-2-[(4-chloro-2-fluorobenzyl)oxy]benzyl}-1H-pyrazolo[3,4-b]pyridine-4-carboxylate]
> 75	> 75			O=C(O)c1cccc2c1cnn2Cc1cc(Br)ccc1OCc1ccc(Cl)cc1F [Example 136]
> 75	> 75			CC(C)(F)COc1ccc(Cl)cc1CN1CCc2c(C(=O)O)cccc21 [Example 166]
> 75	> 75			O=C(O)c1cccc2c1OCCN2Cc1cc(Cl)ccc1OCc1ccc(Cl)cc1F [Example 117]
> 75	> 75			O=C(O)c1cccc2c1OCCN2Cc1ccccc1OCc1ccc(Cl)cc1F [Example 119]
> 75	> 75			CC(C)COc1ccc(Cl)cc1Cn1cc(CCO)c2c(C(=O)O)cccc21 [Example 157]
> 75	> 75			CC(C)COc1ccc(Cl)cc1CN1CCCc2c(C(=O)O)cccc21 [Example 175]
> 75	> 75			O=C(O)c1cccc2c1OCC(=O)N2Cc1cc(Br)ccc1OCc1ccc(Cl)cc1F [Example 115]
> 75	> 75			CC(C)COc1ccc(Cl)cc1CN1CCc2c(C(=O)O)cccc21 [Example 169]

Structure (SMILES)	inhibition at 10 µM (human EP1 receptor [1]) [%]	inhibition at 10 µM (human EP1 receptor [2]) [%]	Results of Test 3 (Functional assay), % inh (human EP1 receptor [1])	Results of Test 1 (Binding assay), % inh (human EP1 receptor [2])
CC(C)COc1ccc(Cl)cc1CN1CCc2c(C(=O)NS(C)(=O)=O)ccnc21 [Example 234, 1-(5-chloro-2-isobutoxybenzyl)-N-(methylsulfonyl)-2,3-dihydro-1H-pyrrolo[2,3-b]pyridine-4-carboxamide sodium salt]	> 75	> 75		
